Measured values: patent US4339439A, “Pharmaceutical methods and compositions” (Bristol-Myers Company, priority 1981, dated 1982)
“Also recorded” adds a separate entry of the source. Read-outs that look alike come from different tables or passages of the source. Non-standard residues stand in square brackets, D forms with d. Residues, ends and D or L forms follow the SMILES beside them. *: point of attachment. Sta = CC(C)C[C@H](N)[C@@H](O)CC(=O)O; Isovaleryl = CC(C)CC(=O)*

Tests used:
stress ulceration = conditions: two or more days of pretreatment; Strauss et al. 1977; cited from earlier work
gastric acid secretion [1] = conditions: cited from earlier work
[2] = tested on: meal stimulated gastric acid secretion; conditions: patients with inactive duodenal ulcers; Myers and Peterson 1980; cited from earlier work
[3] = Toxicity profile in pharmacological studies in animals; format: in vivo
[4] = tested on: gastric erosions produced in rats by the oral instillation of 1.0 ml of 0.75 N HCl; experiment: HCl-induced gastric erosions in rats (modified method of Robert et al.); format: in vivo, rat (Long Evans)
Procedure: In the tests described below, gastric erosions produced in rats by the oral instillation of 1.0 ml of 0.75 N HCl were compared with those in rats which had been pretreated with etintidine or with etintidine and pepstatin.
A modification of the method of Robert et al., [Gastroenterology, 77, 433-443 (1979)] was employed to produce gastric erosions. Adult male, Long Evans rats weighing 280-300 g (Blue Spruce Farms, Alton, New York) were used. The animals were individually caged and food and water were removed 24 and 18 hours, respectively, prior to testing. On the following day, etintidine was administered orally to the animals 30 minutes before 1.0 ml of 0.75 N HCl was instilled into the stomach by gavage. […]
The stomachs were removed from the animals, cut along the greater curvature, opened, rinsed with saline and pinned out flat in a standard position for macroscopic examination and scoring of erosions. The stomachs were photographed with a Polaroid® Close Up camera (Polaroid Corporation) and scoring was determined from the photographs. […]
Data were analyzed using the t-test for unpaired data and ED50 values were calculated from dose response data using probit analysis [Finney, Probit Analysis, 3rd ed., University Press, Cambridge, England (1971)]. […]

histamine H2 -receptor = histamine H2 -receptor (Homo sapiens, UniProt P25021); conditions: Cavanagh et al. 1980; cited from earlier work
gastric acid secretion [5] = experiment: Inhibitory effect on gastric acid secretion versus pepsin activity; conditions: in vivo
duodenal ulcer = conditions: cited from earlier work
pepsin [6] = conditions: cited from earlier work
gastric ulcer = conditions: cited from earlier work
[7] = tested on: stomach ulcers in the pylorus ligated (Shay) rat; experiment: Ulcer formation in the pylorus ligated (Shay) rat; format: in vivo; conditions: 18 hour pylorus ligated rat, 20 mg/kg po, previous studies in applicant's laboratories
[8] = tested on: stomach ulcers in the pylorus ligated (Shay) rat; conditions: Umezawa et al. 1970; cited from earlier work
pepsin [9] = experiment: Pepsin activity in the 18 hour pylorus ligated rat; format: in vivo; conditions: 20 mg/kg po
pepsin [10] = conditions: in the stomach; U.S. Pat. No. 4,101,650; cited from earlier work
[11] = daily oral doses of 700 mg for up to three months; Svendsen et al. 1976; cited from earlier work
[12] = all animal species studied; Svendsen et al. 1976; cited from earlier work
[13] = Absorption and fecal excretion after oral administration; format: in vivo, animals
[14] = British Medical Journal review 1980
[15] = patients with ulcer dyspepsia, Svendsen et al. 1976

Chain of histamine H2 -receptor (P25021 whole entry, species assumed): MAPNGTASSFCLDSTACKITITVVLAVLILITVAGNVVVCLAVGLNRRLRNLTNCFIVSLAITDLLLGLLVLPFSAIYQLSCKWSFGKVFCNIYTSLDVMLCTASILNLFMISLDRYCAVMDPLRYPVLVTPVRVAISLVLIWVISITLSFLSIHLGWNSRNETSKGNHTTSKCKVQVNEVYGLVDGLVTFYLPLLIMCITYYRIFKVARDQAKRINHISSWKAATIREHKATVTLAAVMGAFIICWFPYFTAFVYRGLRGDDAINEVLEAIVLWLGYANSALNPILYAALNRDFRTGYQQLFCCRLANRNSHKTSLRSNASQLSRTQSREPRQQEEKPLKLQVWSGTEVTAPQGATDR

## CC1(C)[C@@H](OC(=O)CCC(=O)O)CC[C@]2(C)[C@H]3C(=O)C=C4[C@@H]5C[C@@](C)(C(=O)O)CC[C@]5(C)CC[C@@]4(C)[C@]3(C)CC[C@@H]12 [carbenoxolone]
Stress ulceration
  ulcer formation: significantly decreased ulcer formation

## CN/C(=N/CCSCc1nc[nH]c1C)NC#N [cimetidine]
Stress ulceration
  ulcer formation: significantly decreased ulcer formation
Gastric acid secretion [1]; Binder and Donaldson 1978
  effect on pepsin secretion: less marked
Gastric acid secretion [1]; normal volunteers, Burland et al. 1975
  basal and stimulated gastric acid secretion: antagonize both basal and stimulated gastric acid secretion
Gastric acid secretion [1]; patients with duodenal ulcer, Longstreth et al. 1976
  basal and stimulated gastric acid secretion: antagonize both basal and stimulated gastric acid secretion

## C#CCN/C(=N\C#N)NCCSCc1nc[nH]c1C [etintidine]
[2]
  meal stimulated gastric acid secretion: effectively antagonizes meal stimulated gastric acid secretion
[3]
  toxicity: relatively nontoxic
  toxicity profile compared with cimetidine: substantially the same as that of the commercial H2 -antagonist cimetidine
[4]; etintidine po 30 min before 1.0 ml 0.75 N HCl, combination also received pepstatin 20 mg/kg po 10 min before HCl, FIG. 2
  ED50 for inhibition of gastric erosions: 62 mg/kg
[4]; pretreatment with 17.5, 35, 70 or 140 mg/kg etintidine po
  formation of gastric erosions: decreased the formation of gastric erosions in a dose-related manner
Histamine H2 -receptor
  potency relative to cimetidine: about twice as potent as cimetidine
Gastric acid secretion [5]
  inhibitory effect on gastric acid secretion compared with pepsin activity: significantly greater than on pepsin activity

## CC(C)CC(=O)N[C@H](C(=O)N[C@H](C(=O)N[C@@H](CC(C)C)[C@@H](O)CC(=O)N[C@@H](C)C(=O)N[C@@H](CC(C)C)[C@@H](O)CC(=O)O)C(C)C)C(C)C [pepstatin] (Isovaleryl-VV[Sta]A[Sta]-OH)
Duodenal ulcer; 100 mg seven times a day, double-blind randomized trial, Bonnevie et al. 1979
  healing or symptomatology of duodenal ulcer versus placebo: no significant difference between pepstatin and placebo
Duodenal ulcer; [14]
  benefit / healing in patients with duodenal ulcer: ineffective
  preventing recurrent bleeding in patients admitted with haematemesis and melaena: ineffective
Pepsin [6]; [15]
  gastric acidity: no effect on the gastric acidity
  gastric peptic activity: inhibits gastric peptic activity
Pepsin [6]; ulcer patients, 100 mg doses seven times a day
  duration of inhibition of peptic activity of gastric juice: 18 hours a day
Gastric ulcer; 100 mg seven times a day, double-blind randomized trial, Svendsen et al. 1979
  healing or symptomatology of gastric ulcer versus placebo: not able to detect any influence of pepstatin
[7]
  ulcer formation: antagonized ulcer formation
[8]
  formation of stomach ulcers: prevent the formation of stomach ulcers
Pepsin [9]
  pepsin activity: completely inhibited pepsin activity
Pepsin [10]
  duration of pepsin suppression: about 1 hours
[11]
  side effects: no side effects were observed
[12]
  LD50: exceeded 3000 mg/kg
[13]
  absorption upon oral administration: essentially unabsorbed; also recorded: only poorly absorbed
[13]; animal studies, within 72 hours
  fraction of compound excreted in the feces: more than 90%

## Amylopectin
Duodenal ulcer; [14]
  benefit / healing in patients with duodenal ulcer: no significant benefit

## sucralfate
Gastric ulcer; [14]
  benefit in patients with gastric ulcer: none
